Experimental findings from article PMC4688878 (Chemical Research in Toxicology, 2015) are described below.

This assay concerns the target T1, porcine liver COMT (Sus scrofa, UniProt Q99028).
T1 sequence (Q99028 1-186): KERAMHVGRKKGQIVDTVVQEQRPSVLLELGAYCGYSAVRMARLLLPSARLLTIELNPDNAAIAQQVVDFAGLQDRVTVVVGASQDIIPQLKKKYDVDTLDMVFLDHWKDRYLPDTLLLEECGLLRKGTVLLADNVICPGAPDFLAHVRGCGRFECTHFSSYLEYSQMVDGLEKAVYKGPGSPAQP
In words: Catechol O-methyltransferase activity assay. In kind it is biochemical. To be noted: 1 mM sinefungin; 1 mM SAM; 2 h at 37 °C.

Molecules are shown by their SMILES.

On to `Nc1ncnc2c1ncn2[C@@H]1O[C@H](C[C@@H](N)CC[C@H](N)C(=O)O)[C@@H](O)[C@H]1O` [singfungin, sinefungin], for which the “inhibition of COMT activity” value was “significantly inhibited”.
